Source: ChEMBL document CHEMBL5291721, “A preclinical secondary pharmacology resource illuminates target-adverse drug reaction associations of marketed drugs” (Nat Commun, 2023)

Key:
[1] = target: T1, Type-1 angiotensin II receptor (Homo sapiens, UniProt P30556)
T1 sequence (P30556 whole entry): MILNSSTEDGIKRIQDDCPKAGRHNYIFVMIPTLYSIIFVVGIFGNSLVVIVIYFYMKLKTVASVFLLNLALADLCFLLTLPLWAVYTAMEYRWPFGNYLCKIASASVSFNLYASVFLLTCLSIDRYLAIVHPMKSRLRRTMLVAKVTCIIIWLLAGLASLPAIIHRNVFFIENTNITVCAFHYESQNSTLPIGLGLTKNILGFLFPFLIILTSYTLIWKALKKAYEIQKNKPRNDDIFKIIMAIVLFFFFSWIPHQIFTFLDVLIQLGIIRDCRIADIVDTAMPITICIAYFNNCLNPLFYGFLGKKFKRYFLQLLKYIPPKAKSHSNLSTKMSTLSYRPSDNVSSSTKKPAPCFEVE

Adenosine receptor A1 = target: T2, Adenosine receptor A1 (Homo sapiens, UniProt P30542)
T2 sequence (P30542 whole entry): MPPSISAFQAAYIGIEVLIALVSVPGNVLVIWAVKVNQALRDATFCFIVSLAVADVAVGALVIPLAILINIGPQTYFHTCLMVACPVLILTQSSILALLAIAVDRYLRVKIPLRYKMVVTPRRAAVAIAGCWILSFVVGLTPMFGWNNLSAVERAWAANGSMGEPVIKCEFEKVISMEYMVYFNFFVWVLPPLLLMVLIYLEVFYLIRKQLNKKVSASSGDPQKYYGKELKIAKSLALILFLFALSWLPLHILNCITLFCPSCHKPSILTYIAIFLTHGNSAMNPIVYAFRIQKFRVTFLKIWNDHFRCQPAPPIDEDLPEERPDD

[2] = target: Voltage-dependent L-type calcium channel subunit alpha-1C (Rattus norvegicus, UniProt P22002); type: functional
Histamine H3 receptor = Histamine H3 receptor (Homo sapiens, UniProt Q9Y5N1)
[3] = target: T3, Alpha-2B adrenergic receptor (Homo sapiens, UniProt P18089)
T3 sequence (P18089 whole entry): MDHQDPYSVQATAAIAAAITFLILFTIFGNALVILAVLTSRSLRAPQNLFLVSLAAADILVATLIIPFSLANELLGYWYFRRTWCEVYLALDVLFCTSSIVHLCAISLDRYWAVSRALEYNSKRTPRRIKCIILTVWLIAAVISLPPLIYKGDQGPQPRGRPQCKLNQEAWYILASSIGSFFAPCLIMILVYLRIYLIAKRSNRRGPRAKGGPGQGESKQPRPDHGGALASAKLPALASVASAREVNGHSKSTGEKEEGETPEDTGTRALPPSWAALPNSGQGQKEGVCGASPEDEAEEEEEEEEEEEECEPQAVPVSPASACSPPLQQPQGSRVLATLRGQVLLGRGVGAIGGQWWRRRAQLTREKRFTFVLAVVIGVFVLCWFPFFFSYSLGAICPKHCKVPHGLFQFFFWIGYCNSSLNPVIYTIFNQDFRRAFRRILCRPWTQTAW

Adenosine receptor A3 = target: T4, Adenosine receptor A3 (Homo sapiens, UniProt P0DMS8)
T4 sequence (P0DMS8 whole entry): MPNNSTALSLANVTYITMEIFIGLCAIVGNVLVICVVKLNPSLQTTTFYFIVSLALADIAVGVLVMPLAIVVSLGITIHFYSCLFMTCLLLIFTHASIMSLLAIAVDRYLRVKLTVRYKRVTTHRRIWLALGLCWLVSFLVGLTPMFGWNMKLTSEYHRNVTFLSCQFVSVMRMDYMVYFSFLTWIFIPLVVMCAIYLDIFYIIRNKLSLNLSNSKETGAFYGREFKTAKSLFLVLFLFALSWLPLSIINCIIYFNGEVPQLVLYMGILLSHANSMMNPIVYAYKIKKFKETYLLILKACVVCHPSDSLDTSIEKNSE

Mu-type opioid receptor = Mu-type opioid receptor (Homo sapiens, UniProt P35372); experiment: biochemical; type: functional
Progesterone receptor = target: T5, Progesterone receptor (Homo sapiens, UniProt P06401); type: functional
T5 sequence (P06401 whole entry): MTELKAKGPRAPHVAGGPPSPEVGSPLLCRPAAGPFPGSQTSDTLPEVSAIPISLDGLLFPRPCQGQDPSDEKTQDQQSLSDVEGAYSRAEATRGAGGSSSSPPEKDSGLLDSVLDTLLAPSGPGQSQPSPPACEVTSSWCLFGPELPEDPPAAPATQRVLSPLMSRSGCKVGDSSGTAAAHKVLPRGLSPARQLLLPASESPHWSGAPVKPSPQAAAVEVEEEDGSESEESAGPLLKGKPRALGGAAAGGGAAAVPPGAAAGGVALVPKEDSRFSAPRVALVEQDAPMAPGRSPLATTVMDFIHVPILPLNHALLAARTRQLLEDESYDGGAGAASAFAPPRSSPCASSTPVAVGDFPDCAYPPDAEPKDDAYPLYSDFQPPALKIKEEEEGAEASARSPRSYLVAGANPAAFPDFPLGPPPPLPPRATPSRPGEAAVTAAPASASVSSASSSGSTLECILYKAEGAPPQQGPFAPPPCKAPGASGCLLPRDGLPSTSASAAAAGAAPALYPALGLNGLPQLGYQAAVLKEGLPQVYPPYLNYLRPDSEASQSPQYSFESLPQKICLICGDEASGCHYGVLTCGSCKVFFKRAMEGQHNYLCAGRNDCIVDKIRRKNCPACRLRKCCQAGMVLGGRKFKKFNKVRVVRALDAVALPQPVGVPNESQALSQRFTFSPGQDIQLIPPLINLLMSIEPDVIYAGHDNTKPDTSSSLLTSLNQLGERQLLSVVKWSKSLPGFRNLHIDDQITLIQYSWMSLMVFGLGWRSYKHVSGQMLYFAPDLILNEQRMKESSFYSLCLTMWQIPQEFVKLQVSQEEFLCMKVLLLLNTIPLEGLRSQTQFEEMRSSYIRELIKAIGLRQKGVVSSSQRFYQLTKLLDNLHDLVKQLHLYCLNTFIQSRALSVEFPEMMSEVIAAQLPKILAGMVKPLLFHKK
Note: assay procedure not described here.

Histamine H3 receptor, sequence (Q9Y5N1 whole entry): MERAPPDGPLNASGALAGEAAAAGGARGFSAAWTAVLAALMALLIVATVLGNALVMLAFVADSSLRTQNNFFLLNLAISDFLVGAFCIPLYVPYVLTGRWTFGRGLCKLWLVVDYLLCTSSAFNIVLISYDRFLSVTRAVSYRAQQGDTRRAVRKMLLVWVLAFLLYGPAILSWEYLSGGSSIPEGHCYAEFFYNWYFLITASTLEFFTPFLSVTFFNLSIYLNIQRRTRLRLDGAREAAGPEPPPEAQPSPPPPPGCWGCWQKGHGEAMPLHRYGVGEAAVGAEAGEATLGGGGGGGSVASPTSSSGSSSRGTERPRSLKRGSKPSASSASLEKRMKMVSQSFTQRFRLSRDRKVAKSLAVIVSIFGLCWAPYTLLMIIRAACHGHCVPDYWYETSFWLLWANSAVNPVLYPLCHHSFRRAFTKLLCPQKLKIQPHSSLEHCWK
Voltage-dependent L-type calcium channel subunit alpha-1C, sequence (P22002 whole entry): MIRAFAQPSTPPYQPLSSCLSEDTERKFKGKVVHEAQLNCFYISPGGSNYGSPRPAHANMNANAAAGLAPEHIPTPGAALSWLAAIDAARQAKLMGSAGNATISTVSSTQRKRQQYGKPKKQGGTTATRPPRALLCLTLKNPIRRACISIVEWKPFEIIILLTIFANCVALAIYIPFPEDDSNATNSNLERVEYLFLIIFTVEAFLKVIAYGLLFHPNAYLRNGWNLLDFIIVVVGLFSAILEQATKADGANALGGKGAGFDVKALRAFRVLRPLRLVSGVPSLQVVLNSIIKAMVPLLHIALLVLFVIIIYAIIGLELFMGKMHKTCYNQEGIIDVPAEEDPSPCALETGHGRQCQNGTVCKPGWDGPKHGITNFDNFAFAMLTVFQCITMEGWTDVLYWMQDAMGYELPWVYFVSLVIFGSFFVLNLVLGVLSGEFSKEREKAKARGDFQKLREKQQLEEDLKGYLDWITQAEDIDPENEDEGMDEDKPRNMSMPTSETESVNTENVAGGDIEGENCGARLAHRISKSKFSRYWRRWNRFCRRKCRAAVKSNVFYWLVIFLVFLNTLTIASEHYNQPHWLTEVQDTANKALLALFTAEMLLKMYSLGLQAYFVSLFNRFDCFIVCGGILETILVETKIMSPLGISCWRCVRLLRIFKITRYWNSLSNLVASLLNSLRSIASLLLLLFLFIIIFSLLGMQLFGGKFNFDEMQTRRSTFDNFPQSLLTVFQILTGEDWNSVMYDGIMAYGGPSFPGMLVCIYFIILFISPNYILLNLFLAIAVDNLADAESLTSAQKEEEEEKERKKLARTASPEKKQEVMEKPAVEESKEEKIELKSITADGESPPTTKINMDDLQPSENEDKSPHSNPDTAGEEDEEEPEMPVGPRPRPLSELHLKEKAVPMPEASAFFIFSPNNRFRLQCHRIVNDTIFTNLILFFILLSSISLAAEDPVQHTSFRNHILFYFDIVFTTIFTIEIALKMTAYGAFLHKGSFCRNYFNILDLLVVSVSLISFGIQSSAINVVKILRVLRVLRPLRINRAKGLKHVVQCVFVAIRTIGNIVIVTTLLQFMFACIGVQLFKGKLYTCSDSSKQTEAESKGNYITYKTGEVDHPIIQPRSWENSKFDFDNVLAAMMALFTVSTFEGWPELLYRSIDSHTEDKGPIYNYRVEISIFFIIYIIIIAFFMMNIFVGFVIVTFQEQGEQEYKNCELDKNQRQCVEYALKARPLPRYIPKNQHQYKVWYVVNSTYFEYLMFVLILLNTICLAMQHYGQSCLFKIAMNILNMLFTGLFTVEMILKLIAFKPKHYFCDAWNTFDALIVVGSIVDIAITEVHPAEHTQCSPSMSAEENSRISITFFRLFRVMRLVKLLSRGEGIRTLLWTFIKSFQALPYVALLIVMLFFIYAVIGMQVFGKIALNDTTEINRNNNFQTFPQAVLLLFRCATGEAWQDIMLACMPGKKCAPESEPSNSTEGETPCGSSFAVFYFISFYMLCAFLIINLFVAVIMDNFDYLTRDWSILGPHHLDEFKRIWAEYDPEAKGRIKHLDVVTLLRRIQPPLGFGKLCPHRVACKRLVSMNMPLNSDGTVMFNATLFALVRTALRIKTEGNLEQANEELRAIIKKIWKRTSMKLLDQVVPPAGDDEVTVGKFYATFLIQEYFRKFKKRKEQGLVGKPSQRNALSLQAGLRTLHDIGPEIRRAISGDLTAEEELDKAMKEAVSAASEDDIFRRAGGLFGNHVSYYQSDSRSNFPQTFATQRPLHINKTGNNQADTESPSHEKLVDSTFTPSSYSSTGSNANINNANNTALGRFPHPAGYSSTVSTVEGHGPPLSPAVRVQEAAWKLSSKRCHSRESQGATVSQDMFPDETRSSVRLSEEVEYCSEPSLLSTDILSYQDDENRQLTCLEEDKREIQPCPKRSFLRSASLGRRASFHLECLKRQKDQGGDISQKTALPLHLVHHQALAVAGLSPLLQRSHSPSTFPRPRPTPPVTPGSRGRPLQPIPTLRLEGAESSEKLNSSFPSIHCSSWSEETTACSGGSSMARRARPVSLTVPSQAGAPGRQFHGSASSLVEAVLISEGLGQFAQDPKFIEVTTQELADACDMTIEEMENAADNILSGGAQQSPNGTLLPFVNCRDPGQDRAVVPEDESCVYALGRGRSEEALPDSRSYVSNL
Mu-type opioid receptor, sequence (P35372 whole entry): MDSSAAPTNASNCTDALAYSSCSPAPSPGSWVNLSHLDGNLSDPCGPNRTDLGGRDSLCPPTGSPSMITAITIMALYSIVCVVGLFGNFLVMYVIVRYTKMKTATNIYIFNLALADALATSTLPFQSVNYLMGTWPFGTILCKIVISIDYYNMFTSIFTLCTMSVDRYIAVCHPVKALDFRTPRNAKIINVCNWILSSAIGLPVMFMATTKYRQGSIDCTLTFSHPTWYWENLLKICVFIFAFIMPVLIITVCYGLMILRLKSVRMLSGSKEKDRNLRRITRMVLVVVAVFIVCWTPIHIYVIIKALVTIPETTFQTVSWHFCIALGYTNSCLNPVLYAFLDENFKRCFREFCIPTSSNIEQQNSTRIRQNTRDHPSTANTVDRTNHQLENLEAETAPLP

| Structure (SMILES) | AC50 [1] [µM] | AC50 (Adenosine receptor A1) [µM] | AC50 [2] [µM] | AC50 (Histamine H3 receptor) [µM] | AC50 [3] [µM] | AC50 (Adenosine receptor A3) [µM] | AC50 (Mu-type opioid receptor) [µM] | AC50 (Progesterone receptor) [µM] |
| --- | --- | --- | --- | --- | --- | --- | --- | --- |
| CC(=O)SC[C@@H](C)C(=O)N1CCC[C@H]1C(=O)N[C@@H](Cc1ccccc1)C(=O)O | > 30 | > 30 | > 30 | > 30 | > 30 | > 30 | > 30 | > 30 |
| NC(=O)CN1CCCC1=O | > 30 | > 30 | – | > 30 | – | > 30 | > 30 | > 30 |
| C[N@+]1(CCF)[C@@H]2CC[C@H]1C[C@@H](OC(=O)C(O)(c1ccccc1)c1ccccc1)C2 | > 30 | > 30 | > 30 | > 30 | > 30 | > 30 | > 30 | > 30 |
| CC(=O)O[C@H](CC(=O)[O-])C[N+](C)(C)C [ACETYLCARNITINE] | > 30 | > 30 | > 30 | > 30 | > 30 | > 30 | > 30 | > 30 |
| Cn1c(=O)cc(N2CCC[C@@H](N)C2)n(Cc2ccccc2C#N)c1=O [ALOGLIPTIN] | > 30 | > 30 | > 10 | > 10 | > 10 | > 30 | – | – |
| CCN1CCCC1CNC(=O)c1cc(S(=O)(=O)CC)c(N)cc1OC (stereo not given) [AMISULPRIDE] | > 30 | > 30 | – | 12 | 1.5 | > 30 | > 30 | > 30 |
| O=C(O)CCNC(=O)c1ccccc1 [BETAMIPRON] | > 30 | > 30 | > 30 | > 30 | – | > 30 | > 30 | > 30 |
| O=C1CN=C(c2ccccn2)c2cc(Br)ccc2N1 [BROMAZEPAM] | > 10 | > 10 | > 10 | – | > 10 | > 10 | – | > 10 |
| Oc1ccc2c(c1)[C@@]13CCCC[C@@]1(O)[C@@H](C2)N(CC1CCC1)CC3 [BUTORPHANOL] | > 30 | > 30 | – | > 30 | > 30 | > 30 | – | > 30 |
| CC(=O)[C@@]1(O)CC[C@H]2[C@@H]3C=C(Cl)C4=CC(=O)[C@@H]5C[C@@H]5[C@]4(C)[C@H]3CC[C@@]21C [CYPROTERONE] | > 30 | > 10 | > 10 | – | > 10 | > 10 | > 30 | 0.003 |
| COc1cc2ncnc(Nc3ccc(F)c(Cl)c3)c2cc1NC(=O)/C=C/CN1CCCCC1 [DACOMITINIB ANHYDROUS] | – | – | – | – | – | 21 | – | > 30 |
| CC(=O)OCC(=O)[C@@]1(O)[C@H](C)C[C@H]2[C@@H]3CCC4=CC(=O)C=C[C@]4(C)[C@@]3(F)[C@@H](O)C[C@@]21C [DEXAMETHASONE ACETATE] | > 30 | > 30 | > 10 | > 10 | > 10 | > 30 | – | – |
| CCN(CC)CCN1C(=O)CN=C(c2ccccc2F)c2cc(Cl)ccc21 [FLURAZEPAM] | > 30 | > 30 | > 10 | > 10 | > 10 | > 30 | – | – |
| CC(=O)[C@]1(O)Cc2c(O)c3c(c(O)c2[C@@H](O[C@H]2C[C@H](N)[C@H](O)[C@H](C)O2)C1)C(=O)c1ccccc1C3=O [IDARUBICIN] | > 30 | > 10 | > 30 | > 30 | – | 20 | > 30 | 5.8 |
| Nc1cc(-c2ccncc2)c[nH]c1=O [INAMRINONE] | > 30 | > 30 | > 10 | > 10 | – | > 30 | – | – |
| COc1cc2c(cc1OC)C(CCc1ccc(Cl)cc1)N(C)CC2 (stereo not given) [METHOPHOLINE] | > 30 | > 30 | > 10 | > 30 | > 10 | > 30 | – | > 30 |
| Cc1ncc2n1-c1ccc(Cl)cc1C(c1ccccc1F)=NC2 [MIDAZOLAM] | > 30 | > 30 | > 10 | > 10 | > 10 | > 30 | – | – |
| C/C(=C\C(=O)OCCCCCCCCC(=O)O)C[C@@H]1OC[C@H](C[C@@H]2O[C@H]2[C@@H](C)[C@H](C)O)[C@@H](O)[C@H]1O [MUPIROCIN] | > 10 | > 10 | > 10 | > 10 | > 10 | > 10 | – | > 10 |
| O=C1CN=C(c2ccccc2)c2cc([N+](=O)[O-])ccc2N1 [NITRAZEPAM] | > 30 | > 10 | > 10 | – | – | > 10 | > 30 | > 10 |
| CN(C(=O)c1c(O)c2ccccc2n(C)c1=O)c1ccccc1 [ROQUINIMEX] | – | – | – | – | – | > 30 | – | > 30 |
| OCc1cc(C(O)CNCCCCCCOCCCCc2ccccc2)ccc1O (stereo not given) [SALMETEROL] | > 30 | > 30 | > 10 | > 10 | 13 | > 30 | – | > 30 |
| Cn1cnc2c(F)c(Nc3ccc(Br)cc3Cl)c(C(=O)NOCCO)cc21 [SELUMETINIB] | – | – | – | – | – | > 30 | – | – |
| CCN(CC)CCNC(=O)c1cc(S(C)(=O)=O)ccc1OC [TIAPRIDE] | > 30 | > 30 | > 30 | > 30 | – | > 30 | > 30 | > 30 |
| NC1CCN(c2nc3c(cc2F)c(=O)c(C(=O)O)cn3-c2ccc(F)cc2F)C1 (stereo not given) [TOSUFLOXACIN] | > 30 | > 30 | > 30 | > 30 | – | > 30 | > 30 | > 30 |
